# Data: the SangsterLogP compilation
# Legend:
# [1] = method code SF-HPLC, from Blakemore, C.; Brown, H.; Durant, J.; Emmett, C.; Ganellin, R.; Parsons, E.; Rasmussen, C. (1980). SK&F 92994: a new histamine H2-receptor antagonist. COMMUNICATIONS: Part II. Br. J. Pharmacol., …
# [2] = method code SF-AS, from DOI: 10.1016/0045-6535(95)00267-c
# [3] = method code SF-AS, from DOI: 10.1016/0005-2744(69)90103-x, PMID: 4387594
# [4] = method code SF-AS, from DOI: 10.1016/s0021-9673(01)87148-x, PMID: 1744207; details: pH 3.4
# [5] = method code SF-AS, from DOI: 10.1002/jps.2600711105; details: pH 7.4
# [6] = method code SF-AS, from DOI: 10.2116/analsci.13.897; details: pH 2.0
# [7] = not given; remark: listed apart in the source
# [8] = method code SF-AS, from Dai, Y.; Jiang, J.; Wang, Z.; Xue, Q. (2007). Experimental and QPSR studies on octanol-water partition coefficient of substituted anilines. J. Struct. Chem, 26(12)1449-1454.
# [9] = pH 9.2
# [10] = method code SF-RC, from DOI: 10.1021/jm070791g.s001, PMID: 17960926
# [11] = method code SF, from DOI: 10.1016/s0021-9673(01)84246-1
# [12] = not given; remark: listed apart in the source
# [13] = method code SF-AS, from DOI: 10.1016/j.jct.2016.12.034; details: pH 7.4
# [14] = method code SF-HPLC, from DOI: 10.1016/0378-5173(88)90220-7; details: pH 7.4
# [15] = method code SF-AS, from DOI: 10.1016/s0378-5173(98)00405-0, PMID: 10089287; details: pH 7.4
# [16] = method code SF, from DOI: 10.1016/0006-291x(88)90214-8; details: pH 7.4
# [17] = method code SF-CR+AS, from Korenman, I.; Lineva, S.; Gezikova, N. (1978). Extraction of naphthol-sulfonic acids from aqueous solution. Zh. Prikl. Khim., 51(4)869-871.
# [18] = method code SF-AS, from DOI: 10.1021/jm010817i, PMID: 11806714; details: pH 7.4
# [19] = method code SF-AS, from DOI: 10.1021/jm00047a013, PMID: 7932583
# [20] = method code SF-AS, from DOI: 10.1021/jm00128a017, PMID: 2754702; details: pH 7.4
# [21] = method code SF-AS, from DOI: 10.1111/j.2042-7158.1980.tb13082.x, PMID: 6110743
# [22] = method code SF-HPLC, from DOI: 10.1002/hlca.19880710534; details: pH 7.4
# [23] = method code SF-AS, from DOI: 10.1016/s0045-6535(00)00181-8, PMID: 11272912
# [24] = method code SF-AS, from DOI: 10.1002/jps.2600650731; details: pH 11.5
# [25] = method code SF, from Zhuang, J.; Mo, H.; An, F.; Yang, K. (1993). Determination of the water solubility and n-octanol/water partition coefficient of pesticide N-(2,4-dimethylphenyl)-N'-methylamidine. Huanjing Huaxue, …
# [26] = method code G-HPLC, from DOI: 10.1016/s0021-9673(01)94303-1
# [27] = not given; remark: listed apart in the source
# [28] = method code SF-RC, from DOI: 10.1016/j.nucmedbio.2007.06.005, PMID: 17707813; details: pH 7.4
# [29] = method code SF-RC, from Audran, M.; Chanal, J.; Marignan, R.; Cousse, H. (1984). Correlations between structure and pharmacokinetic parameters in a series of cresotinamides. International Journal of Pharmaceutics, …; details: pH 1.0
# [30] = method code SF-RC, from DOI: 10.1016/j.nucmedbio.2011.07.009, PMID: 21958846; details: pH 7.4
# [31] = not given; remark: listed apart in the source
# [32] = method code SF-AS, from Korenman, Y.; Pazynin, T. (1972). Distribution of nitrosonaphthols between organic solvents and water. J. anal. chem. USSR, 27(4)723-725.; details: pH 2.0
# [33] = method code SF-RC, from DOI: 10.1002/jlcr.2580210110; details: pH 7.4
# [34] = method code SF-HPLC, from DOI: 10.1021/jm00109a018, PMID: 2033591; details: pH 7.0
# [35] = method code SF-GLC, from DOI: 10.1021/je970069v
# [36] = method code SF-CR, from DOI: 10.1042/bj1780443, PMID: 109087; details: pH 7.4
# [37] = method code SF-AS, from DOI: 10.2307/3575639, PMID: 7313077; details: pH 7.4
# [38] = not given; remark: listed apart in the source
# [39] = method code SF-AS, from DOI: 10.1139/y89-042, PMID: 2547502; details: pH 7.4
# [40] = not given; remark: listed apart in the source
# [41] = method code SF-CR+AS, from Korenman, I.; Tishchenko, M.; Kombarova, A. (1977). Distribution of dihydroxynaphthalenes between higher alcohols and water. Zh. Prikl. Khim., 50(4)899-901.; details: pH 2.0
# [42] = method code SF-RC, from DOI: 10.1182/blood.v76.11.2389.bloodjournal76112389, PMID: 2257308; details: pH 7.4
# [43] = method code SF-AS, from DOI: 10.5012/bkcs.2007.28.7.1183
# [44] = method code SF-AS, from PMID: 6692390; details: pH 4.0
# [45] = method code SF-GLC, from DOI: 10.1016/j.chemosphere.2005.05.003, PMID: 15967478
# [46] = not given; remark: listed apart in the source
smiles,measurement,setting,value
COC(=O)c1ccc(CN(C)N=O)cc1,logP,[1],1.21
CC(C)(C#N)Nc1nc(Cl)nc(NC2CC2)n1,logP,[2],1.99
NC(=O)c1cn(Cc2c(F)cccc2F)nn1,logP,,0.88
CCCCNc1ccccc1,logP,[3],3.58
C/C(=C\c1ccccc1)C(=O)O,logD,[4],2.58
COCC(O)Cn1c([N+](=O)[O-])nc(C(C)=O)c1C (configuration not stated),logD,[5],0.03
CCC(C(=O)O)c1ccccc1 (configuration not stated),logD,[6],2.47
Cc1ccc(C(C)C)cc1,logP,[7],4.14
CCN(CC)c1ccccc1,logP,[8],3.11
CN(C)CNC(=O)c1ccccc1,logD,[9],0.85
O=c1[nH]c(=O)n([C@H]2C=C[C@@H](CO)C2)cc1I,logP,[10],0.29
Nc1nc2c(ncn2[C@@H]2O[C@H](CO)[C@@H](O)[C@H]2O)c(=O)[nH]1,logP,[11],-1.85
Clc1cc(Cl)cc(C2(CC(Cl)(Cl)Cl)CO2)c1 (configuration not stated),logP,[12],4.34
CC(=O)Nc1ccc(C=NNC(N)=S)cc1,logD,[13],1.7
CC(=O)N(C)S(=O)(=O)c1ccc(C)cc1,logD,[14],1.73
Cc1nc2ccccn2c(=O)c1C,logD,[15],1.14
Cc1cn([C@H]2CC[C@@H](CO)O2)c(=O)[nH]c1=O,logD,[16],-0.7
O=S(=O)(O)c1ccc(O)c2ccccc12,logP,[17],-0.44
CC(=O)NCc1c(O)c(=O)cc(C)n1C,logD,[18],-0.82
Cc1cn([C@H]2C[C@H](F)[C@@H](CO)O2)c(=O)[nH]c1=O,logP,[19],-0.3
Nc1nc(N)c2ncn([C@H]3C=C[C@@H](CO)O3)c2n1,logD,[20],-0.48
CCCCOc1cccc(O)c1,logP,[21],3.03
C=CCC1(CC(C)O)C(=O)NC(=O)NC1=O (configuration not stated),logD,[22],-0.01
COc1cc(C=O)c(OC)c(OC)c1,logP,[23],1.91
CC/N=C(N)/N=C(\N)Nc1ccc(Cl)cc1,logD,[24],2.14
CNC=Nc1ccc(C)cc1C,logP,[25],2.92
CCCCc1ccccc1,logP,[26],4.29
CC(C)N1C(=O)c2ccccc2NS1(=O)=O,logP,[27],1.95
Nc1nc(F)c2ncn(CCC(CO)CO)c2n1,logD,[28],-0.52
CCNC(=O)c1cc(Cl)cc(C)c1O,logD,[29],3.55
Cc1c(CC(CO)CF)n(C)c(=O)[nH]c1=O (configuration not stated),logD,[30],-0.56
CC(C)c1ccc(CO)cc1,logP,[31],2.49
O=Nc1ccc2ccccc2c1O,logD,[32],2.57
C1C2CC3CC1CC(C2)C3,logD,[33],5.2
N=c1c2ncn([C@@H]3O[C@H](CO)C[C@@H]3F)c2ncn1O,logD,[34],-1.38
Cc1ccc(C(C)C)c(Cl)c1Cl,logP,[35],5.5
Cc1cc(=O)oc2cc(O)ccc12,logD,[36],1.9
CNC(=O)c1cc(N2CC2)c([N+](=O)[O-])cc1[N+](=O)[O-],logD,[37],0.44
O=C(O)/C=C/C(=O)c1ccccc1,logP,[38],1.53
Nc1ncnc2c1ncn2[C@@H]1O[C@@H]2COP(=O)(O)O[C@H]2[C@H]1O,logD,[39],-2.96
CNC(=O)Oc1cc(C)c(C)cc1Cl,logP,[40],2.3
Oc1ccc2cccc(O)c2c1,logD,[41],1.94
CCc1c(O)c(=O)ccn1CCOC,logD,[42],-0.08
Nc1ccc(S(=O)(=O)Nc2cnc(Cl)cn2)cc1,logP,[43],0.25
CC(=O)c1ccc(NC(=O)N(C)N=O)cc1,logD,[44],0.26
CC1=CCC(C(C)C)C=C1 (configuration not stated),logP,[45],4.58
Cc1cnc2n(c1=O)CCCC2C (configuration not stated),logP,[46],0.69
